Converted amounts (≈) assume the structure as drawn.
Tested on: S. pneumoniae ATCC 49619
Experiment: Minimal inhibitory concentration (MIC) by broth microdilution (CLSI M7-A7)
Assay type: cell-based, Streptococcus pneumoniae
Details: Streptococcus pneumoniae, ATCC49619; cation-adjusted Mueller Hinton Broth supplemented with 3% (v/v) lysed horse blood; microdilution method
In short: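 Broth microdilution per CLSI M7-A7 in cation-adjusted Mueller-Hinton broth with 3% (v/v) lysed horse blood for S. pneumoniae. MIC in mg/l.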

Structure (SMILES) | MIC
CCNC(=O)Nc1cc2c(-c3ccnc(C)c3)ccc(CN(C)C(=O)OCCOC)c2cn1 [Example 181, [3-(3-ethyl-ureido)-5-(2-methyl-pyridin-4-yl)-isoquinolin-8-ylmethyl]-methyl-carbamic acid 2-methoxy-ethyl ester] | 8 µg/mL (≈ 17.7 µM)
CCNC(=O)Nc1cc2c(-c3ccncc3)ccc(CNC(=O)CCN(C)C(=O)OC(C)(C)C)c2cn1 [Example 58, (2-{[3-(3-ethyl-ureido)-5-pyridin-4-yl-isoquinolin-8-ylmethyl]-carbamoyl}-ethyl)-methyl-carbamic acid tert-butyl ester] | 2 µg/mL (≈ 3.95 µM)
CCNC(=O)Nc1cc2c(-c3ccncc3)ccc(CNC(=O)c3cc[nH]n3)c2cn1 [Example 72, 1H-pyrazole-3-carboxylic acid [3-(3-ethyl-ureido)-5-pyridin-4-yl-isoquinolin-8-ylmethyl]-amide] | 0.5 µg/mL (≈ 1.2 µM)
C#CC(=O)NCc1ccc(-c2ccncc2)c2cc(NC(=O)NCC)ncc12 [Example 75, propynoic acid [3-(3-ethyl-ureido)-5-pyridin-4-yl-isoquinolin-8-ylmethyl]-amide] | 0.25 µg/mL (≈ 0.669 µM)
CCNC(=O)Nc1cc2c(-c3ccnc(CC)c3)ccc(CNC(=O)OC)c2cn1 [Example 170, [5-(2-ethyl-pyridin-4-yl)-3-(3-ethyl-ureido)-isoquinolin-8-ylmethyl]-carbamic acid methyl ester] | 1 µg/mL (≈ 2.45 µM)
C#CCOC(=O)NCc1cccc2cc(NC(=O)NCC)ncc12.Cl [Example 31, [3-(3-ethyl-ureido)-isoquinolin-8-ylmethyl]-carbamic acid prop-2-ynyl ester hydrochloride] | 2 µg/mL
CCNC(=O)Nc1cc2c(-c3ccncc3)ccc(CNC(=O)c3ncc[nH]3)c2cn1 [Example 74, 1H-imidazole-2-carboxylic acid [3-(3-ethyl-ureido)-5-pyridin-4-yl-isoquinolin-8-ylmethyl]-amide] | 0.25 µg/mL (≈ 0.602 µM)
CCNC(=O)Nc1cc2c(-c3ccncc3)ccc(CNC(=O)OC[C@@H]3CCC(=O)N3)c2cn1.Cl [Example 87, (S)-[3-(3-ethyl-ureido)-5-pyridin-4-yl-isoquinolin-8-ylmethyl]-carbamic acid 5-oxo-pyrrolidin-2-ylmethyl ester hydrochloride] | 0.25 µg/mL
CCNC(=O)Nc1cc2cccc(CNC(=O)OCc3ccccn3)c2cn1.Cl [Example 34, [3-(3-ethyl-ureido)-isoquinolin-8-ylmethyl]-carbamic acid pyridin-2-ylmethyl ester hydrochloride] | 4 µg/mL
CCNC(=O)Nc1cc2c(-c3ccncc3)ccc(CNC(=O)CCC(=O)NC)c2cn1 [Example 55, N-[3-(3-ethyl-ureido)-5-pyridin-4-yl-isoquinolin-8-ylmethyl]-N′-methyl-succinamide] | 8 µg/mL (≈ 18.4 µM)
CCNC(=O)Nc1cc2c(-c3cc(C)nc(C)c3)ccc(CNC(=O)OC)c2cn1 [Example 164, [5-(2,6-dimethyl-pyridin-4-yl)-3-(3-ethyl-ureido)-isoquinolin-8-ylmethyl]-carbamic acid methyl ester] | 1 µg/mL (≈ 2.45 µM)
CCNC(=O)Nc1cc2cccc(CNC(=O)c3ccccn3)c2cn1 [Example 11, pyridine-2-carboxylic acid [3-(3-ethyl-ureido)-isoquinolin-8-ylmethyl]-amide] | 2 µg/mL (≈ 5.72 µM)
CCNC(=O)Nc1cc2c(-c3ccncc3)ccc(CNC(=O)OC(C)(C)C)c2cn1 [Example 76, [3-(3-ethyl-ureido)-5-pyridin-4-yl-isoquinolin-8-ylmethyl]-carbamic acid tert-butyl ester] | 0.25 µg/mL (≈ 0.593 µM)
CCNC(=O)Nc1cc2cccc(CNC(=O)c3ccccc3)c2cn1 [Example 4, N-[3-(3-ethyl-ureido)-isoquinolin-8-ylmethyl]-benzamide] | 2 µg/mL (≈ 5.74 µM)
CCNC(=O)Nc1cc2c(-c3ccncc3)ccc(CNC(=O)CC(=O)NC)c2cn1 [Example 53, N-[3-(3-ethyl-ureido)-5-pyridin-4-yl-isoquinolin-8-ylmethyl]-N′-methyl-malonamide] | 4 µg/mL (≈ 9.51 µM)
CCNC(=O)Nc1cc2c(-c3ccncc3)ccc(CNC(=O)OCCNC(=O)OC(C)(C)C)c2cn1 [Example 81, [3-(3-ethyl-ureido)-5-pyridin-4-yl-isoquinolin-8-ylmethyl]-carbamic acid 2-tert-butoxycarbonylamino-ethyl ester] | 0.5 µg/mL (≈ 0.983 µM)
CCNC(=O)Nc1cc2c(-c3ccnc(N4CCOCC4)c3)ccc(CNC(=O)OC)c2cn1 [Example 169, [3-(3-ethyl-ureido)-5-(2-morpholin-4-yl-pyridin-4-yl)-isoquinolin-8-ylmethyl]-carbamic acid methyl ester] | 4 µg/mL (≈ 8.61 µM)
C#CCOC(=O)NCc1ccc(-c2ccnc(C)c2)c2cc(NC(=O)NCC)ncc12 [Example 158, [3-(3-ethyl-ureido)-5-(2-methyl-pyridin-4-yl)-isoquinolin-8-ylmethyl]-carbamic acid prop-2-ynyl ester] | 0.5 µg/mL (≈ 1.2 µM)
CCNC(=O)Nc1cc2c(-c3ccncc3)ccc(CNC(=O)OCCCOC)c2cn1.Cl [Example 94, [3-(3-ethyl-ureido)-5-pyridin-4-yl-isoquinolin-8-ylmethyl]-carbamic acid 3-methoxy-propyl ester hydrochloride] | 0.5 µg/mL

Structure (SMILES) | MIC
C#CC(C)OC(=O)NCc1ccc(-c2ccncc2)c2cc(NC(=O)NCC)ncc12 (racemic) [Example 108, (±)-[3-(3-ethyl-ureido)-5-pyridin-4-yl-isoquinolin-8-ylmethyl]-carbamic acid 1-methyl-prop-2-ynyl ester] | 0.25 µg/mL (≈ 0.599 µM)
CCNC(=O)Nc1cc2cccc(CNC(=O)C(C)(C)C)c2cn1 [Example 14, N-[3-(3-ethyl-ureido)-isoquinolin-8-ylmethyl]-2,2-dimethyl-propionamide] | 4 µg/mL (≈ 12.2 µM)
CCNC(=O)Nc1cc2c(-c3ccncc3)ccc(CNC(=O)OCC(O)CO)c2cn1.Cl (racemic) [Example 103, (±)-[3-(3-ethyl-ureido)-5-pyridin-4-yl-isoquinolin-8-ylmethyl]-carbamic acid 2,3-dihydroxy-propyl ester hydrochloride] | 4 µg/mL
CCNC(=O)Nc1cc2c(-c3ccncc3)ccc(CNC(=O)CCC(N)=O)c2cn1 [Example 54, N-[3-(3-ethyl-ureido)-5-pyridin-4-yl-isoquinolin-8-ylmethyl]-succinamide] | 4 µg/mL (≈ 9.51 µM)
CCNC(=O)Nc1cc2cccc(CNC(=O)c3cncn3C)c2cn1 [Example 22, 3-methyl-3H-imidazole-4-carboxylic acid [3-(3-ethyl-ureido)-isoquinolin-8-ylmethyl]-amide] | 4 µg/mL (≈ 11.4 µM)
CCNC(=O)Nc1cc2cccc(CNC(=O)CCC(N)=O)c2cn1 [Example 21, N-[3-(3-ethyl-ureido)-isoquinolin-8-ylmethyl]-succinamide] | 8 µg/mL (≈ 23.3 µM)
CCNC(=O)Nc1cc2c(-c3ccnc(C4CC4)c3)ccc(CNC(=O)OC)c2cn1 [Example 160, [5-(2-cyclopropyl-pyridin-4-yl)-3-(3-ethyl-ureido)-isoquinolin-8-ylmethyl]-carbamic acid methyl ester] | 2 µg/mL (≈ 4.77 µM)
CCNC(=O)Nc1cc2c(-c3ccnc(C#N)c3)ccc(CNC(=O)OC)c2cn1 [Example 197, [5-(2-cyano-pyridin-4-yl)-3-(3-ethyl-ureido)-isoquinolin-8-ylmethyl]-carbamic acid methyl ester] | 2 µg/mL (≈ 4.95 µM)
CCNC(=O)Nc1cc2cccc(CNC(=O)OCCOC)c2cn1.Cl [Example 37, [3-(3-ethyl-ureido)-isoquinolin-8-ylmethyl]-carbamic acid 2-methoxy-ethyl ester hydrochloride] | 4 µg/mL
CCNC(=O)Nc1cc2c(-c3ccncc3)ccc(CNC(=O)CCCO)c2cn1 [Example 90, N-[3-(3-ethyl-ureido)-5-pyridin-4-yl-isoquinolin-8-ylmethyl]-4-hydroxy-butyramide] | 2 µg/mL (≈ 4.91 µM)
CCNC(=O)Nc1cc2cccc(CNC(=O)OCc3cn[nH]c3)c2cn1.Cl [Example 39, [3-(3-ethyl-ureido)-isoquinolin-8-ylmethyl]-carbamic acid 1H-pyrazol-4-ylmethyl ester hydrochloride] | 2 µg/mL
CCNC(=O)Nc1cc2c(-c3ccncc3)ccc(CNC(=O)CN(C)C(=O)OC(C)(C)C)c2cn1 [Example 48, ({[3-(3-ethyl-ureido)-5-pyridin-4-yl-isoquinolin-8-ylmethyl]-carbamoyl}-methyl)-methyl-carbamic acid tert-butyl ester] | 2 µg/mL (≈ 4.06 µM)
CCNC(=O)Nc1cc2c(-c3ccnc(C)c3)ccc(CNC(=O)OCCOC)c2cn1 [Example 119, [3-(3-ethyl-ureido)-5-(2-methyl-pyridin-4-yl)-isoquinolin-8-ylmethyl]-carbamic acid 2-methoxy-ethyl ester] | 0.5 µg/mL (≈ 1.14 µM)
CCNC(=O)Nc1cc2c(-c3ccncc3)ccc(CNC(=O)CNC(=O)OC(C)(C)C)c2cn1 [Example 47, ({[3-(3-ethyl-ureido)-5-pyridin-4-yl-isoquinolin-8-ylmethyl]-carbamoyl}-methyl)-carbamic acid tert-butyl ester] | 1 µg/mL (≈ 2.09 µM)
CCNC(=O)Nc1cc2c(-c3ccnc(CCC(=O)NC)c3)ccc(CNC(=O)OC)c2cn1 [Example 195, {3-(3-ethyl-ureido)-5-[2-(2-methylcarbamoyl-ethyl)-pyridin-4-yl]-isoquinolin-8-ylmethyl}-carbamic acid methyl ester] | 4 µg/mL (≈ 8.61 µM)
CCNC(=O)Nc1cc2cccc(CNC(=O)CN(C)C)c2cn1 [Example 19, 2-dimethylamino-N-[3-(3-ethyl-ureido)-isoquinolin-8-ylmethyl]-acetamide] | 8 µg/mL (≈ 24.3 µM)
C#CCOC(=O)N(C)Cc1cccc2cc(NC(=O)NCC)ncc12 [Example 44, [3-(3-ethyl-ureido)-isoquinolin-8-ylmethyl]-methyl-carbamic acid prop-2-ynyl ester] | 8 µg/mL (≈ 23.5 µM)
CCNC(=O)Nc1cc2c(-c3ccnc(C(N)=O)c3)ccc(CNC(=O)OCCOC)c2cn1 [Example 179, [5-(2-carbamoyl-pyridin-4-yl)-3-(3-ethyl-ureido)-isoquinolin-8-ylmethyl]-carbamic acid 2-methoxy-ethyl ester] | 8 µg/mL (≈ 17.1 µM)
CCNC(=O)Nc1cc2c(-c3ccnc(OC(C)(C)C)c3)ccc(CNC(=O)OC)c2cn1 [Example 167, [5-(2-tert-butoxy-pyridin-4-yl)-3-(3-ethyl-ureido)-isoquinolin-8-ylmethyl]-carbamic acid methyl ester] | 4 µg/mL (≈ 8.86 µM)

Source: US8889676B2, “3-ureidoisoquinolin-8-yl derivatives” (Actelion Pharmaceuticals Ltd., priority 2011, dated 2014)
